# Data from patent publication US12257347B2, “Pharmaceutical composition comprising meta arsenite and method of manufacture” (KOMIPHARM INT[…] PTY LTD, priority 2018, dated 2025).
# What was measured:
# [1] = Hygroscopicity (moisture uptake) of the supplied SMA drug substance; format: physicochemical
# Description: (§1) Sodium meta-arsenite (“SMA”) was obtained from Sigma Aldrich Fine Chemicals. […]
# [2] = Solubility of the supplied SMA drug substance; format: physicochemical
# Description: as §1
structure (smiles),measurement,setting,value
"O=[As][O-].[Na+] [SMA, sodium meta-arsenite]",Hygroscopicity (moisture uptake),[1]; at 75% RH,~40% at 75% RH
same,Hygroscopicity (moisture uptake),[1]; at 80% RH,>80% at 80% RH
same,Hygroscopicity (moisture uptake),[1]; at 90% RH,>130% at 90% RH
same,Solubility,[2],Approx. 950 mg/mL
